Data on 6 compounds can be found in US8227205B2 (priority 2007, dated 2012).

What all share (type): cell-based
For one data set, the system named is Jurkat cells. Put plainly: CytoTox-Glo live and dead cell luminescence assay. Particulars: Jurkat cells, 10,000 cells/well, 6 hours, FIG. 5/FIG. 7. The procedure:
Ionomycin (a calcium ionophore which affects calcium flux across cell membranes, and therefore a model necrosis inducing agent at high concentrations) was two fold serially diluted from 100 μM in RPMI 1640+10% FBS in 50 μL volumes. Jurkat cells were added to 10,000 cells/well in a 50 μL volume. The plate was shaken briefly using an orbital shaker and then incubated for 6 hours at 37° C. CytoTox-Glo Reagent was prepared as above and added to each well in a equal volume (100 μL) per well. The plate was incubated at room temperature for 15 minutes and the dead cell signal measured using a BMG PolarStar. Digitonin (20 mg/mL in DMSO) was diluted to 300 μg/mL in CytoTox-Glo buffer and added in 20 μL volumes per well to facilitate complete cellular lysis. Luminescence was measured after 15 minutes of incubation at room temperature.
The luminescent signal collected after lysis was adjusted to reflect the “live cell” contribution by subtracting the initial dead cell signal. […]
Staurosporine (multiple mechanism apoptosis inducer) was two fold serially diluted from 20 μM in RPMI 1640+10% FBS in a microwell plate in 50 μL, volumes. […] The plate was incubated at room temperature for 15 minutes and the dead cell signal measured using a BMG PolarStar. […] Luminescence was measured after 15 minutes of incubation at room temperature. […]

For a further data set, the system named is K562cells. The experiment in a line: CytoTox-Glo dual measurement of cell viability and cytotoxicity (dead cell luminescence, then digitonin lysis, subtractive live cell signal). Conditions: K562 cells, 5,000 cells/well, 24 hours, two-fold serial dilution from 10 μM, FIG. 11A. The method, then: (§1) Campothecin was two-fold serially-diluted in RPMI 1640+10% FBS medium from 10 μM and added in 50 μL volumes. The cells were incubated at 37° C., 5% CO2 for 24 hours. CytoTox-Glo reagent was prepared as described above and added to each well in an equal volume (100 μL). After 15 minutes of incubation, the dead cell signal was measured. Digitonin (20 mg/mL in DMSO) was diluted in CytoTox-Glo buffer and added in 20 μL volumes to each well to facilitate complete cell lysis. Luminescence was measured after 15 minutes of incubation at room temperature.
The luminescent signal collected after lysis was adjusted to reflect the “live cell” contribution by subtracting the initial dead cell signal. The data were plotted as the non-viable and viable signals versus the concentration of campothecin (FIG. 11A). […] If only viability was measured, one might conclude that the compound was substantially cytotoxic. If only cytotoxicity was measured, one might conclude that the compound was not very potent. Either interpretation would be faulty.

In the next data set the test system is HeLa cells. The description is as above. Particulars: HeLa cells, 10,000 cells/well, 24 hours, FIG. 11B/11C. The procedure: In FIG. 11B, HeLa cells were seeded at a 10,000 cells/well in DMEM+10% FBS in 50 μl volumes and incubated overnight at 37° C. in 5% CO2. Nocodazole was two-fold serially diluted in DMEM+10% FBS in a separate plate from 2 μM and added in 50 μL it volumes (highest final dosage is 1,000 nM). The cells were allowed to incubate with the compound for 24 hours. CytoTox-Glo Reagent was prepared as above and added to each well in an equal volume (100 μL). After 15 minutes of incubation, the dead cell signal was collected. Digitonin (20 mg/mL in DMSO) was diluted in CytoTox-Glo buffer and added in 20 μL volumes to each well to facilitate complete cell lysis. Luminescence was measured after 15 minutes of incubation at room temperature.
The luminescent signal collected after lysis was adjusted to reflect the “live cell” contribution by subtracting the initial dead cell signal. The data were plotted as the non-viable and viable signals versus the concentration of nocodazole.
In FIG. 11C, HeLa cells were seeded at a 10,000 cells/well in DMEM+10% FBS in 50 μL volumes and incubated overnight at 37° C. in 5% CO2. Colchicine was two-fold serially diluted in DMEM+10% FBS in a separate plate from 1,000 nM and added in 50 μL volumes (highest final dosage was 500 nM). The cells were allowed to incubate with the compound for 24 hours. […] Luminescence was measured after 15 minutes of incubation at room temperature. […]

Another data set deals with DU-145 cells. The experiment in a line: CytoTox-Glo live and dead cell luminescence assay. Particulars: DU-145 cells, 5,000 cells/well, 48 hours, FIG. 10A. The method, then: as §1, with “DU-145 cells were seeded at a density of 5,000 cells/well in 50 μL of MEM+10% FBS and allowed to attach overnight. Epoxomicin (a proteasome inhibitor)” for “Campothecin”, “serially diluted from 5 μM” for “two-fold serially-diluted”, “MEM+10%” for “RPMI 1640+10%”, “FBS” for “FBS medium from 10 μM”, “with the compound” for “at 37° C., 5% CO2”, “48” for “24”
The luminescent signal collected after lysis was adjusted to reflect the “live cell” contribution by subtracting the initial dead cell signal. The data were plotted as the non-viable and viable signals versus the concentration of epoxomicin (FIG. 10A). […] The data also represents yet another toxin and mechanistic form of cell death.

Each structure is given as a SMILES string.

As for `CN[C@@H]1C[C@H]2O[C@@](C)([C@@H]1OC)n1c3ccccc3c3c4c(c5c6ccccc6n2c5c31)C(=O)NC4` [Staurosporine], the “dead and live cell signals versus the concentration of compound” value with Jurkat cells is “live and dead cells were inversely complimentary”. As for `CC[C@@]1(O)C(=O)OCc2c1cc1n(c2=O)Cc2cc3ccccc3nc2-1` [campothecin, Campothecin], in the data set with K562cells, the “non-viable and viable signals versus the concentration of compound (viability and cytotoxicity)” value was “early cytotoxicity because of cell-cycle arrest”. For the compound `COc1cc2c(c(OC)c1OC)-c1ccc(OC)c(=O)cc1[C@@H](NC(C)=O)CC2` [colchicine, Colchicine], the “non-viable and viable signals versus the concentration of compound (viability and cytotoxicity)” value with HeLa cells is listed as “viability is reduced because of the cytotoxicity of the compound”. For `CC[C@H](C)[C@H](NC(=O)[C@H]([C@@H](C)CC)N(C)C(C)=O)C(=O)N[C@H](C(=O)N[C@@H](CC(C)C)C(=O)[C@@]1(C)CO1)[C@@H](C)O` [epoxomicin, Epoxomicin], the “non-viable and viable signals versus the concentration of compound” value in the data set on DU-145 cells was “viable and non-viable cells were inversely complimentary”. In the case of `C[C@H](CCC(=O)O)C[C@H](C)C[C@H](C)C(=O)/C=C(\O)[C@H](C)C[C@H](C)C/C=C/[C@@H](C)[C@@H](O)[C@@H](C)[C@@H](O)C[C@@H]1CC[C@@](C)([C@H]2CC[C@@](C)([C@@H](C)O)O2)O1` [ionomycin, Ionomycin], in the data set with Jurkat cells, the “dead and live cell signals versus the concentration of compound” value was “live and dead cells were inversely complimentary”.

As for `COC(=O)Nc1nc2ccc(C(=O)c3cccs3)cc2[nH]1` [nocodazole, Nocodazole], in the data set on HeLa cells, the “non-viable and viable signals versus the concentration of compound (viability and cytotoxicity)” value is “viability and cytotoxicity are ratiometric”.
